This is an account of results in patent US4916121A, “Antitumor composition comprising pyrimidine type nucleic acid derivative and 1-[(2-hydroxyethoxy)methyl]uracil derivative” (Teijin Limited, priority 1985, dated 1990).

Data set [1] deals with T1, pyrimidine nucleoside phosphorylase (Rattus norvegicus, UniProt F7F0D5).
T1 construct: small intestine homogenates of an SD-strain male rat and a male beagle; from tissue; host or cells: small intestine homogenate of SD-strain male rat
The data set can be described thus: Inhibition of pyrimidine nucleoside phosphorylase activity in rat small intestine homogenate (decomposition of 5-fluoro-2'-deoxyuridine). It is filed as biochemical, SD-strain rat. Here is the method: (§1) Inhibitory effects of 1-[(2-hydroxyethoxy)methyl]-5-methyluracil, 1-[(2-hydroxyethoxy)methyl]-5-fluoro-uracil, 1-[(2-hydroxyethoxy)methyl]-5-bromouracil on pyrimidine nucleoside phosphorylase activity in the small intestine homogenates of an SD-strain male rat and a male beagle were assayed with a lowering in decomposition rate of 5-fluoro-2'-deoxyuridine (concentration: 0.025 mM) and compared with the same effects of thymidine and deoxyuridine.

Data set [2] in a line: Inhibition of pyrimidine nucleoside phosphorylase activity in beagle small intestine homogenate (decomposition of 5-fluoro-2'-deoxyuridine). Conditions: dog, small intestine homogenate, pH 7. It is filed as biochemical. Here is the method: as §1
The subject of data set [3] is pyrimidine nucleoside phosphorylase. The data set is described as above. It is filed as biochemical. As to conditions: for Half-life of 5-fluoro-2'-deoxyuridine in presence of inhibitor / Inhibitory percentage: 0.4% w/v beagle small intestine homogenate, pH 7.0, 37° C. Here is the method:
as §1

The test system of data set [4] is mouse leukemia L1210. As to the kind of experiment: Antitumor effect on mouse leukemia L1210 (increase in life span), oral administration. Conditions: days 1, 3, 5. It is filed as in vivo. An excerpt:
The antitumor effect for mouse leukemia L1210 by a simultaneous oral administration of the compounds of the present invention 3',5'-didodecanoyl-5-fluoro-2'-deoxyuridine and 1-[[2-(octadecanoyloxy)ethoxy]methyl]-5-methyluracil was compared with those of (a) 5-fluoro-2'-deoxyuridine alone, (b) 3',5'-didodecanoyl-5-fluoro-2'-deoxyuridine alone, and (c) a simultaneous oral administration of 3',5'-didodecanoyl-5-fluoro-2'-deoxyuridine and 1-[(2-hydroxyethoxy)methyl]-5-methyluracil.
10^5 ascite tumor cells of mouse leukemia L1210 7 days after transplantation were transplanted intraperioneally into mouse (.male.8 weeks, Ca 25-26 g, 5 mice/group) and provided for experiments. 24 hours after transplantation of the tumor cells, the pharmaceuticals were administered orally three times on day 1, day 3 and day 5.
The antitumor effect of the pharmaceuticals were shown by the increase in life span (ILS) of the group administered with pharamaceuticals relative to the control group (with no pharmaceutical administered) (line extension %).

The nature of data set [5]: Lipid solubility: retention time in reversed phase HPLC (Lichrosorb RP-18). It is filed as physicochemical. Conditions: RP-18 4.0 × 130 mm, 1.2 ml/min, index of lipid solubility. Here is the method: The retention time of the compounds of the present invention in reversed phase system high performance liquid chromatograph (Lichrosorb RP-18 column) was measured in two kinds of solvent systems.

Data set [6] can be described thus: Hydrophilic properties: retention time in normal phase HPLC (Nucleosil 5CN). It is filed as physicochemical. As to conditions: n-hexane:ethanol = 88:12, 1.2 ml/min, index of hydrophilic properties. Here is the method: The retention times of the compounds of the present invention in normal phase system high performance liquid chromatograph (Nucleosil) 5 CN column were measured.

Data set [7] can be described thus: Enzymatic hydrolyzability in rat duodenum epithelial homogenate. It is filed as in vitro ADME. Conditions: rat duodenum epithelial homogenate 1% w/v, pH 7.0, 37° C. Here is the method:
The hydrolysis rates of the compounds of the present invention were measured at 37° C. in rat duodenum epithelial homogenate (1%, w/v; pH 7.0).

Data set [8] deals with established cell line derived from a mouse. As to conditions: same molar concentration, in vitro; cited from earlier work.
Data set [9] relates to pyrimidine nucleoside phosphorylase. Conditions: cited from earlier work.
Data set [10] concerns thymidine phosphorylase. The data set can be described thus: Inhibition of thymidine phosphorylase activity and enzymatic stability in small intestine. It is filed as biochemical. As to conditions: rat and beagle small intestine. Here is the method:
as §1

Data set [11] deals with T1, pyrimidine nucleoside phosphorylase. As to the kind of experiment: Inhibition of pyrimidine nucleoside phosphorylase activity in rat small intestine homogenate (decomposition of 5-fluoro-2'-deoxyuridine). It is filed as biochemical, SD-strain rat. As to conditions: inhibitor 0.025 mM; 0.09% w/v rat small intestine homogenate, pH 7.0, 37° C.
Data set [12] can be described thus: Inhibition of pyrimidine nucleoside phosphorylase activity in beagle small intestine homogenate (decomposition of 5-fluoro-2'-deoxyuridine). It is filed as biochemical. As to conditions: dog; inhibitor 0.025 mM; 0.4% w/v beagle small intestine homogenate, pH 7.0, 37° C.
Where [13] appears, read: rat, small intestine homogenate, pH 7.
Where [14] appears, read: inhibitor 0.025 mM, 0.09% w/v rat small intestine homogenate, pH 7.0, 37° C.
Setting [15] is: inhibitor 0.025 mM, 0.09% w/v rat small intestine homogenate, pH 7.0, 37° C., read-out: Inhibitory percentage.
Where [16] appears, read: pH 7, read-out: Inhibitory percentage.

Like-named read-outs stand apart in the source and are kept apart here.

T1 sequence (F7F0D5 1-312): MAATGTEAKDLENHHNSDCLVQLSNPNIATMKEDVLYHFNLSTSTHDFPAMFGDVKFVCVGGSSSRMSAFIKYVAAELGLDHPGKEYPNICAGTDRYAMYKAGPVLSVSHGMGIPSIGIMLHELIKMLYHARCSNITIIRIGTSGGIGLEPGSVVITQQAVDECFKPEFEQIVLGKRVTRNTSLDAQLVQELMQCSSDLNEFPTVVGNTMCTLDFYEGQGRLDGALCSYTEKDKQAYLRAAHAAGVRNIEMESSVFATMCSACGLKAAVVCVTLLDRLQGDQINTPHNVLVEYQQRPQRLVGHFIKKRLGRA

As to `O=c1[nH]c(=O)n(COCCO)cc1Br` [1-[(2-hydroxyethoxy)methyl]-5-bromouracil], the “Half-life of 5-fluoro-2'-deoxyuridine in presence of inhibitor” value (“Half-life … of inhibitor” for short) in data set [1] (inhibitor 0.01 mM, 0.09% w/v rat small intestine homogenate, pH 7.0, 37° C.) came to 0.542 h; in data set [3] (inhibitor 0.01 mM), 1.04 h. For the same compound, the inhibition at 10 µM in data set [1] (inhibitor 0.01 mM, 0.09% w/v rat small intestine homogenate, pH 7.0, 37° C., read-out: Inhibitory percentage) worked out at 47.7%. Further, the half-life at 10 µM in data set [1] (setting [13]) and in [2] was more than 16.7 h each time. This compound had an Inhibitory percentage in [3] (inhibitor 0.01 mM) of 55.5%.
In the case of `O=c1[nH]c(=O)n(COCCO)cc1F` [1-[(2-hydroxyethoxy)methyl]-5-fluorouracil], the “Half-life … of inhibitor” value in data set [1] (setting [14]) was 0.823 h; in [3] (inhibitor 0.025 mM), 0.78 h. Besides, the inhibition at 25 µM in [1] (setting [15]) came to 65.6%. For the same compound, the half-life at 25 µM in data set [1] (setting [13]) and in data set [2] was more than 16.7 h each time. Also, the Inhibitory percentage in data set [3] (inhibitor 0.025 mM) was 40.6%.
For `Cc1cn(COCCO)c(=O)[nH]c1=O` [1-[(2-hydroxyethoxy)methyl]-5-methyluracil], in [4] (200 mg/kg/one dose alone), the ILS is recorded as 12%. The “Half-life … of inhibitor” value was determined as 1.677 h in data set [1] (setting [14]) and 1.42 h in data set [3] (inhibitor 0.025 mM). For the same compound, in data set [1] (setting [15]), the inhibition at 25 µM was found to be 83.1%. Further, the half-life at 25 µM in [1] (setting [13]) and in [2] was more than 16.7 h in each case. Besides, the Inhibitory percentage in [3] (inhibitor 0.025 mM) turned out to be 67.3%.
For `CCCCCCCCCCCCCCCC(=O)OCCOCn1cc(C)c(=O)[nH]c1=O` [1-[[2-(Hexadecanoyloxy)-ethoxy]-methyl]-5-methyluracil], in data set [5], the “Retention time (b) Acetonitrile:acetic acid (999:1)” value is 3.15 min and the “Retention time (a) Acetonitrile:water (19:1)” value is 3.53 min.
The compound `CCCCCCCCCCCCCCCCCCCC(=O)OCCOCn1cc(C)c(=O)[nH]c1=O` [1-[[2-(eicosanoyloxy)-ethoxy]-methyl]-5-methyluracil] gave a Retention time in data set [6] of 5.48 min. In data set [7], this compound had a Hydrolysis rate constant of 0.052 min.^-1.
`CCCCCCCCCCCCCCCCCC(=O)OCCOCn1cc(C)c(=O)[nH]c1=O` [1-[[2-(octadecanoyloxy)ethoxy]methyl]-5-methyluracil]: in [4] (450 mg/kg/one dose alone), the increase in lifespan (ILS) came to 12%.
For the compound `CCCCCCCCCCCC(=O)OC[C@H]1O[C@@H](n2cc(F)c(=O)[nH]c2=O)C[C@@H]1OC(=O)CCCCCCCCCCC` [3'5'-didodecanoyl-5-fluoro-2'-deoxyuridine], the “Retention time (b) Acetonitrile:acetic acid (999:1)” value in data set [5] worked out at 3.00 min. The “Retention time (a) Acetonitrile:water (19:1)” value in data set [5] was 3.96 min. Besides, the ILS in [4] (10 mg/kg/one dose alone) was 0%; in data set [4] (30 mg/kg/one dose alone), 5%; in data set [4] (100 mg/kg/one dose alone), 15%; in data set [4] (300 mg/kg/one dose alone) it was 40%.
As for `CCCCCCCCCCCCCC(=O)OC[C@H]1O[C@@H](n2cc(F)c(=O)[nH]c2=O)C[C@@H]1OC(=O)CCCCCCCCCCCCC` [3'5'-ditetradecanoyl-5-fluoro-2'-deoxyuridine], in [6], the Retention time came out at 5.38 min. Besides, the Hydrolysis rate constant in data set [7] is 0.027 min.^-1.
For the compound `O=c1[nH]c(=O)n([C@H]2C[C@H](O)[C@@H](CO)O2)cc1F` [5-Fluoro-2'-deoxyuridine, 5-fluoro-2'-deoxyuridine, reference compound], the ILS in data set [4] (10 mg/kg/one dose alone) was determined as 15%; in [4] (30 mg/kg/one dose alone), 10%; in data set [4] (100 mg/kg/one dose alone), 15%; in data set [4] (300 mg/kg/one dose alone), 10%. Further, the “Half-life of 5-fluoro-2'-deoxyuridine” value in [1] (rat, small intestine homogenate, 25 µM, pH 7) was 0.283 h; in data set [3] (dog, small intestine homogenate, 25 µM, pH 7) it was 0.463 h. Besides, the “antitumor activity relative to 5-fluorouracil” value in data set [8] is given as 100 fold. Also, the “half-life in blood (in words)” value in data set [9] (after administration in living bodies) is “shorter half-life in blood”. Besides, in [9] (living bodies), the “decomposition by pyrimidine nucleoside phosphorylase (in words)” value is given as “rapidly decomposed”.
Consider `O=c1ccn([C@H]2C[C@H](O)[C@@H](CO)O2)c(=O)[nH]1` [Deoxyuridine, reference compound], for which the “Half-life … of inhibitor” value in data set [1] (setting [14]) turned out to be 0.37 h; in [3] (inhibitor 0.025 mM), 0.508 h. For the same compound, the inhibition at 25 µM in data set [1] (setting [16]) came to 23.4%. The values for the half-life at 25 µM in data set [1] (setting [13]) and in data set [2] were 1.1 h and 0.538 h, respectively. The Inhibitory percentage in data set [3] (inhibitor 0.025 mM) was found to be 8.8%.
As for `Cc1cn([C@H]2C[C@H](O)[C@@H](CO)O2)c(=O)[nH]c1=O` [Thymidine, reference compound], the “Half-life … of inhibitor” value in data set [1] (setting [14]) was found to be 0.51 h; in data set [3] (inhibitor 0.025 mM), 0.968 h. For the same compound, the inhibition at 25 µM in data set [1] (setting [16]) was determined as 44.4%. For the same compound, the Inhibitory percentage in [3] (inhibitor 0.025 mM) was 52.2%. In data set [10], the “inhibitory activity against thymidine phosphorylase (in words)” value was “more potenty inhibited by thymidine than by deoxyuridine”. Besides, the results for the half-life at 25 µM in data set [11] and in data set [12] were 1.48 h and 0.45 h, respectively.
